From patent publication US12516058B2, “Small-molecule compounds for controlling endosomal toll-like receptors and therapeutic agent for autoimmune diseases using same” (priority 2020, dated 2026) come the findings set out here.

The target of assay [1] is T1, TLR7 (Mus musculus, UniProt P58681).
T1 construct: endogenous in cells; host or cells: RAW 264.7
T1 sequence (P58681 27-1050): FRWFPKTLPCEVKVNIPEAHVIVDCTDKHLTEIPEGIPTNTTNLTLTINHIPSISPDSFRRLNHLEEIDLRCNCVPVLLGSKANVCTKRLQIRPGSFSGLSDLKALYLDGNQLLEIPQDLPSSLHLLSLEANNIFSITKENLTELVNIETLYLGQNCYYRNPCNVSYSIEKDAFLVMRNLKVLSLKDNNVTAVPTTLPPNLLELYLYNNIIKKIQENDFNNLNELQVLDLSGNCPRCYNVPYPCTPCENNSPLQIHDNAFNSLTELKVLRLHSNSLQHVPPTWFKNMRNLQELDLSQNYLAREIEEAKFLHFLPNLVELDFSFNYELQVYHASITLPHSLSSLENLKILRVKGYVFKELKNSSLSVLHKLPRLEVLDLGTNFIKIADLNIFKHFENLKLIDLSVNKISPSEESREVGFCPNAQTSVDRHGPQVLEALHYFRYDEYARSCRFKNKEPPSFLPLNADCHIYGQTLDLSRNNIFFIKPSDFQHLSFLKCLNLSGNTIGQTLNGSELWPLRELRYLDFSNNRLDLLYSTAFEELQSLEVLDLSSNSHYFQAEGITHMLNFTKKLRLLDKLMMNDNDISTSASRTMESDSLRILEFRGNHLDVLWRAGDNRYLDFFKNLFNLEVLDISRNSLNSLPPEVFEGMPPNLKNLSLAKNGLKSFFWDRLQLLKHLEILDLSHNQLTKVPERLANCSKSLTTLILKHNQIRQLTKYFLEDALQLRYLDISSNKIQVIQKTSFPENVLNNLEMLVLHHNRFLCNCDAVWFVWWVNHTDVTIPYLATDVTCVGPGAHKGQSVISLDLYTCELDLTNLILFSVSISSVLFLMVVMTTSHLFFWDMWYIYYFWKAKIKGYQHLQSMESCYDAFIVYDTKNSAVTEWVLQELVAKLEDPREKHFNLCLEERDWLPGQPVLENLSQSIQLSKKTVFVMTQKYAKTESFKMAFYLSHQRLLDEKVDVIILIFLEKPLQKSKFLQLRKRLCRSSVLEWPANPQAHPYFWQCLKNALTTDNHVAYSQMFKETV
The assay can be described thus: TNF-α secretion ELISA after TLR7 agonist imiquimod (IMQ) in RAW 264.7 cells. As to conditions: SK21 to SK82 at 0.5 μM or 2 μM, Imiquimod 1 μg/ml. In kind it is cell-based. Here is the method: (§1) In order to determine the inhibitory activities of the test-ligand, RAW 264.7 cells were pretreated with each candidate compound for 1 hour, then treated with Pam3CSK4 (synthetic triacyl lipopeptide; TLR1/2, Invitrogen), FSL-1 (synthetic diacyl lipoprotein, TLR2/6, 100 ng/ml), lipopolysaccharide (LPS, TLR4, Sigma Aldrich), imiquimod (IMQ, TLR7, Invitrogen), and ODN2395 (type C CpG repeat motif DNA oligo(5′-[…]-3), TLR9, Bioneer) ligand for 4 hours, and treated with poly I:C (I:C repeat motif double-stranded RNA, TLR3, Invitrogen) and TL8-506 (TLR8, Invitrogen) showing delayed reactivity for 24 hours. After activation of TLR, the supernatant was diluted in an appropriate ratio so as to measure within the standard dose range, transferred to a pre-coated 96-well assay plate, and then treated with mouse TNF-alpha secretion level in accordance with the manufacturer's instructions using a mouse-TNF-alpha ELISA-kit (Invitrogen).
(§2) In order to plot the concentration-dependent LC50 curves, treatment with the SK series ligands at different concentrations up to 200 μM (the highest concentration that could be treated within the level of 0.5% DMSO) was performed. Then, cell viability and toxicity response upon treatment with ligands were analyzed by MTT as described in Examples 1-3. Cell viability in each plot was normalized from negative control (100%; no treatment) to positive control (highest concentration of test-ligand), and LC50 was determined by non-linear regression (Graph Pad Prism 7.0). In order to plot the concentration-dependent IC50 curves, pre-treatment with the SK series ligands was performed at different concentrations up to 50 μM (twice the initial concentration). Cell responses mediated by TLR7 and TLR9 (levels of TNF-α secretion) were analyzed by ELISA as described in Examples 1-4. The cytokine level in each plot was normalized from negative control (non-treated) to positive control (treatment with ligand), and IC50 was determined by non-linear regression (Graph Pad Prism 7.0).
(§3) In order to select potential inhibitory molecules against TLR3/TLR7/TLR8/TLR9 activation, first, MTT (3-(4,5-dimethylthiazol-2-yl)-2,5-diphenyltetrazolium bromide) cell viability assay (FIG. 7) was performed upon treatment with a set of ligands from SK21 to SK82 at a concentration of 20 μM and the inhibitory activity thereof was evaluated by an ELISA assay to monitor the level of TNF-α secretion in RAW 264.7 cells. The experimental ligands from SK21 to SK82 were administered at 0.5 μM or 2 μM to the RAW 264.7 cells and stimulated with Imiquimod (TLR7, 1 μg/ml) and OND2395 (TLR9, 0.5 μM).
(An ELISA detects its analyte on a solid surface through an enzyme-linked reagent.)

The target in assay [2] is T2, TLR9 (Mus musculus, UniProt Q9EQU3).
T2 construct: endogenous in cells; host or cells: RAW 264.7
T2 sequence (Q9EQU3 26-1032): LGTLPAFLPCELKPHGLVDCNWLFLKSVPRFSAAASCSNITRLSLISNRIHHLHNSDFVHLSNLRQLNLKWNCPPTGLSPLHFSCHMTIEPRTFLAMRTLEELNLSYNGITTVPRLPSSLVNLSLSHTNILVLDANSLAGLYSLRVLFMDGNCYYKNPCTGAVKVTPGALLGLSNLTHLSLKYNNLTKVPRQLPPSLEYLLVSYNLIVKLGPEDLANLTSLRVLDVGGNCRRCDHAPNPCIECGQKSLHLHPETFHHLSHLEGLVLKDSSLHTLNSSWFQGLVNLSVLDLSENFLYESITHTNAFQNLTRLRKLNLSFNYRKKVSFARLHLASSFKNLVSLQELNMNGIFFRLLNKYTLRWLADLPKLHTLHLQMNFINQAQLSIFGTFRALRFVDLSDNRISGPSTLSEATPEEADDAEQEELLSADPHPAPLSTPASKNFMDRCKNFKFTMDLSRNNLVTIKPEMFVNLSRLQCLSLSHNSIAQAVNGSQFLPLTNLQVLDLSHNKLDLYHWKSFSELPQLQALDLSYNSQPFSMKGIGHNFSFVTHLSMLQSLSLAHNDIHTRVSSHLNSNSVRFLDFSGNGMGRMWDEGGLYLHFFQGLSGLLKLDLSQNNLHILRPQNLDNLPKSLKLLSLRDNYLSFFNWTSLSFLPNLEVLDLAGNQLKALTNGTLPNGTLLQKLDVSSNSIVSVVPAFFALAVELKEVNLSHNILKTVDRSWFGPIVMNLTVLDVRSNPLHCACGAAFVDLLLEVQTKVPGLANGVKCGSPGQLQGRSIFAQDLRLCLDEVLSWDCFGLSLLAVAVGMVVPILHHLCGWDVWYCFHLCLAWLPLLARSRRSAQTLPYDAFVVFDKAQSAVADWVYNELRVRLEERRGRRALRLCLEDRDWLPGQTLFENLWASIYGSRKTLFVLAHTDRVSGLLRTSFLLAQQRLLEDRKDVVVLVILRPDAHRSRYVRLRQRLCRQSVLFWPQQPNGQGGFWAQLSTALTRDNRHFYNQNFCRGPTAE
Kind of assay: TNF-α secretion ELISA after TLR9 agonist ODN2395 in RAW 264.7 cells. In kind it is cell-based. The settings on record: SK21 to SK82 at 0.5 μM or 2 μM, ODN2395 0.5 μM. Here is the method:
as §1, §2, §3

Entries after “also recorded” stand apart in the source; their conditions may differ.

In the case of `CN(C)CCCn1c2ccccc2c2c(N)c3c(nc21)CCCC3` [SK52, 6-(3-(dimethylamino)propyl)-2,3,4,6-tetrahydro-1H-indolo[2,3-b]quinolin-11-amine], the “inhibitory activity against TLR7 (level of TNF-α secretion)” value (shortened to “inhibitory activity against TLR7”) in assay [1] is given as “significant inhibitory activity; also recorded: significantly reduced”. Moreover, the “inhibitory activity against TLR9 (level of TNF-α secretion)” value (“inhibitory activity against TLR9” below) in assay [2] is “significant inhibitory activity; also recorded: significantly reduced”.
On to `CN(C)CCCn1c2ccc(C#N)cc2c2c(N)c3c(nc21)CCCC3` [SK62, 11-amino-6-(3-(dimethylamino)propyl)-2,3,4,6-tetrahydro-1H-indolo[2,3-b]quinolin-9-carbonitrile], for which the “inhibitory activity against TLR7” value in assay [1] is recorded as “significant inhibitory activity; also recorded: significantly reduced”. Further, in assay [2], the “inhibitory activity against TLR9” value is “significant inhibitory activity; also recorded: significantly reduced”.
With `CN(C)CCCn1c2ccc(OCc3ccccc3)cc2c2c(N)c3c(nc21)CCCC3` [SK69, 9-(benzyloxy)-6-(3-(dimethylamino)propyl)-2,3,4,6-tetrahydro-1H-indolo[2,3-b]quinolin-11-amine], the “inhibitory activity against TLR7” value in assay [1] is recorded as “significant inhibitory activity; also recorded: significantly reduced”. The “inhibitory activity against TLR9” value in assay [2] is recorded as “significant inhibitory activity; also recorded: significantly reduced”.
With `CC(C)Oc1ccc2c(c1)c1c(N)c3c(nc1n2CCCN(C)C)CCCC3` [SK70, 6-(3-(dimethylamino)propyl)-9-isopropoxy-2,3,4,6-tetrahydro-1H-indolo[2,3-b]quinolin-11-amine], the “inhibitory activity against TLR7” value in assay [1] is recorded as “significant inhibitory activity; also recorded: significantly reduced”. In assay [2], the “inhibitory activity against TLR9” value is “significant inhibitory activity; also recorded: significantly reduced”.
For the compound `COc1ccc2c3c(N)c4c(nc3n(CCCN(C)C)c2c1)CCCC4` [SK65, 6-(3-(dimethylamino)propyl)-8-methoxy-2,3,4,6-tetrahydro-1H-indolo[2,3-b]quinolin-11-amine], the “inhibitory activity against TLR7” value in assay [1] is reported as “significant inhibitory activity; also recorded: significantly reduced”. In addition, in assay [2], the “inhibitory activity against TLR9” value is “significant inhibitory activity; also recorded: significantly reduced”.
`CNCCCn1c(C)c(C)c2c(N)c3c(nc21)CCCCC3` [SK24, 2,3-dimethyl-1-(3-(methylamino)propyl)-1,5,6,7,8,9-hexahydrocyclohepta[b]pyrrolo[3,2-e]pyridin-4-amine]: in assay [1], the “inhibitory activity against TLR7” value was “significant inhibitory activity; also recorded: significantly reduced”. In addition, the “inhibitory activity against TLR9” value in assay [2] is listed as “significant inhibitory activity; also recorded: significantly reduced”.
For the compound `CN(C)CCCn1c2cc(Cl)ccc2c2c(N)c3c(nc21)CCCC3` [SK82, 8-chloro-6-(3-(dimethylamino)propyl)-2,3,4,6-tetrahydro-1H-indolo[2,3-b]quinolin-11-amine], the “inhibitory activity against TLR7” value in assay [1] is given as “significant inhibitory activity; also recorded: significantly reduced”. Besides, the “inhibitory activity against TLR9” value in assay [2] is reported as “significant inhibitory activity; also recorded: significantly reduced”.
Consider `CN(C)CCCn1c2ccc3ccccc3c2c2c(N)c3c(nc21)CCCC3` [SK74, 7-(3-(dimethylamino)propyl)-9,10,11,12-tetrahydro-7H-benzo[4,5]indolo[2,3-b]quinolin-13-amine], for which the “inhibitory activity against TLR7” value in assay [1] is recorded as “significantly reduced”; in assay [1] (listed as SK 74), “significant inhibitory activity”. Besides, the figures for the “inhibitory activity against TLR9” value in assay [2] and in assay [2] (listed as SK 74) were “significantly reduced” and “significant inhibitory activity”, respectively.
In the case of `Cc1cc2c(N)c3c(nc2n1CCCN(C)C)CCCCC3` [SK29, 1-(3-(dimethylamino)propyl)-2-methyl-1,5,6,7,8,9-hexahydrocyclohepta[b]pyrrolo[3,2-e]pyridin-4-amine], the “inhibitory activity against TLR7” value in assay [1] is on record as “significant inhibitory activity; also recorded: significantly reduced”. For the same compound, the “inhibitory activity against TLR9” value in assay [2] was “significant inhibitory activity; also recorded: significantly reduced”.
For `CN(C)CCCn1c2ccc(C(F)(F)F)cc2c2c(N)c3c(nc21)CCCC3` [SK63, 6-(3-(dimethylamino)propyl)-9-(trifluoromethyl)-2,3,4,6-tetrahydro-1H-indolo[2,3-b]quinolin-11-amine], the “inhibitory activity against TLR7” value in assay [1] was “significant inhibitory activity; also recorded: significantly reduced”. Besides, the “inhibitory activity against TLR9” value in assay [2] is “significant inhibitory activity; also recorded: significantly reduced”.
